For experiment [1], the target named is T1, SGLT1 (Homo sapiens, UniProt P13866).
T1 construct: expressed in transfected cells
T1 sequence (P13866 1-664): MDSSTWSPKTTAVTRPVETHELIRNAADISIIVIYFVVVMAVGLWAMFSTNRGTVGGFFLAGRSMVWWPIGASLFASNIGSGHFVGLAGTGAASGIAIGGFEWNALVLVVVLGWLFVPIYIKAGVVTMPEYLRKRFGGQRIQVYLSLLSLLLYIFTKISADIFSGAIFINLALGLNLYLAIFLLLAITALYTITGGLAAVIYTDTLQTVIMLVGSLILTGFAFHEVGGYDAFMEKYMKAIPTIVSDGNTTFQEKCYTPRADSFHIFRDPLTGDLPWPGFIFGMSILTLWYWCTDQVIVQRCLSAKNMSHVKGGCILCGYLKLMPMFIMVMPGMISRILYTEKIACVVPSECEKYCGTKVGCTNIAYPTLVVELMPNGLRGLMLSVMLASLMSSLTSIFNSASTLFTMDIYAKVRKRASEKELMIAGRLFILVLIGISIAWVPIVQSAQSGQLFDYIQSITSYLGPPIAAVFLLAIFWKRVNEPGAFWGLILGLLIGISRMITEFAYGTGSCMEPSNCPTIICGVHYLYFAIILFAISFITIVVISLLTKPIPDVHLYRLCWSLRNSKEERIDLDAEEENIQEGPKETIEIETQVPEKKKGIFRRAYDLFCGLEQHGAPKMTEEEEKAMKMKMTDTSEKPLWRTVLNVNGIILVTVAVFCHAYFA
Description: 14C-AMG uptake in BHK cells transfected with SGLT1. It counts as cell-based. As to conditions: 37° C., 90 min. An excerpt: (§1) The compounds can be tested on their SGLT inhibition properties by means of BHK cells expressing SGLT1 and SGLT2. The production of the cells and the testing can be carried out as described below.
To construct the SGLT1 expression vector (KL225), the SLC5A1 gene (homologous to NM_000343) was amplified from a cDNA library using standard PCR technology and cloned over NheI/XhoI sites into the cDNA3.1 expression vector (Invitrogen) containing neomycin as a selection marker. In this vector, transcription uses the enhancer/promoter of human cytomegalovirus.
The final vector KL225 together with an additional vector containing a dihydrofolate reductase gene as a selection marker was introduced into cells. Transfection into BHK21 cells (ATCC CCL-10), cultivated in DMEM medium (GIBCO/BRL), supplemented with 10% foetal calf serum (FCS) and 20 mM glutamine, was carried out using calcium phosphate transfections according to Graham, F. L. and van der Ebb, A. J. (1973), Virology 52: 456 with 5-20 μg of uncut plasmids for 10^7 cells. Stable transfectants were selected in medium containing 1 mg/ml of G418 (GIBCO/BRL) and 20-5000 nM methotrexate as final concentration, where only cells which expressed the neomycin gene and overexpressed the dhfr gene were able to grow. After growth for 2-3 weeks, the cells were cloned (0.5 cells/well) and the clones were investigated for SGLT expression in the radioactivity uptake test. […]
(§2) A 96-well cell-based assay was developed and adapted to HIS requirements:
(§3) BHK cells (transfected with SGLT1 or SGLT2) were seeded into 96-well microtitre plates (Cultureplates, Perkin Elmer). After at least 24 h, medium was removed and the cell layer was washed with assay buffer (140 mM NaCl, 2 mM KCl, 1 mM CaCl2, 1 mM MgCl2, 10 mM HEPES, 5 mM Tris, adjusted with 1 M KOH to pH 7.4), After addition of 40 μl of assay buffer, 50 μl of AMG ([…] for SGLT1 and 2 mM for SGLT2) in the presence or absence of compounds, the cells were incubated in a total volume of 100 μl at 37° C. for 90 min. Supernatant was removed by suction and discarded. The cells were washed and lysed by addition of 50 μl of water. After 10 min at room temperature, 200 μl of Microscint 40 (Perkin Elmer) were added. The radioactivity was counted in a Topcount microplate scintillation counter (Perkin Elmer). The non-specific uptake was determined in sodium-free assay buffer (266 mM sucrose, 2 mM KCl, 1 mM CaCl2, 1 mM MgCl2, 10 mM HEPES, 5 mM Tris, adjusted to pH 7.4 using 1 M KOH).

For experiment [2], the target named is T2, SGLT2 (Homo sapiens, UniProt P31639).
T2 construct: expressed in transfected cells
T2 sequence (P31639 1-672): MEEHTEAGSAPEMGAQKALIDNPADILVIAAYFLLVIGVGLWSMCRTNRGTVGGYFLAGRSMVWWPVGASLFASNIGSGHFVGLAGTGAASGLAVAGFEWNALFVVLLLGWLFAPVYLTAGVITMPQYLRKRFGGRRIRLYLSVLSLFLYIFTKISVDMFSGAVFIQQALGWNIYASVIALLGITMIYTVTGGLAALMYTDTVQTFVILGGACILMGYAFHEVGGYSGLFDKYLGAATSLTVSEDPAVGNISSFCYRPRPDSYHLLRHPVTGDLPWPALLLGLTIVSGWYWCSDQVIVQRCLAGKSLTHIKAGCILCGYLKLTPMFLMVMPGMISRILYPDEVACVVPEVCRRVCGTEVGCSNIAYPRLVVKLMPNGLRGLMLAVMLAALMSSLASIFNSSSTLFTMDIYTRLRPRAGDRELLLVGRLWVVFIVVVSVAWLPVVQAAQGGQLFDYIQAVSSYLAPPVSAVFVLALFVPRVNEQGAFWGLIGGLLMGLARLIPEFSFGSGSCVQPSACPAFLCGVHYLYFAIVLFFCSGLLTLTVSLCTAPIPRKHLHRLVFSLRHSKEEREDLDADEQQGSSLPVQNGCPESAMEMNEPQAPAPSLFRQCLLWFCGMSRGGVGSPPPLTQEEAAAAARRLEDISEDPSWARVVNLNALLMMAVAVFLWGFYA
As to the kind of experiment: 14C-AMG uptake in BHK cells transfected with SGLT2. It counts as cell-based. As to conditions: 37° C., 90 min.
Excerpt: as §1
To construct the SGLT2 expression vector (KL224), the SLC5A2 gene (homologous to NM_003041) was amplified from a cDNA library using standard PCR technology and cloned over NheI/XhoI sites into PCI-neo expression vector (Promega) containing neomycin as a selection marker. In this vector, transcription uses the enhancer/promoter of human cytomegalovirus and the SV40 polyadenylation signal.
The final vector KL224 together with an additional vector containing a dihydrofolate reductase gene as a selection marker was introduced into cells. Transfection into BHK21 cells (ATCC CCL-10), cultivated in DMEM medium (GIBCO/BRL), supplemented with 10% foetal calf serum (FCS) and 20 mM glutamine, was carried out using calcium phosphate transfections according to Graham, F. L. and van der Ebb, A. J. (1973), Virology 52: 456 with 5-20 μg of uncut plasmids for 10^7 cells. Stable transfectants were selected in medium containing 1 mg/ml of G418 (GIBCO/BRL) and 20-5000 nM methotrexate as final concentration, where only cells which expressed the neomycin gene and overexpressed the dhfr gene were able to grow. After growth for 2-3 weeks, the cells were cloned (0.5 cells/well) and the clones were investigated for SGLT expression in the radioactive uptake test,
The uptake of ^14C-α-methyl-D-glucopyranoside (AMG) in, for example, Xenopus oocytes injected with the corresponding cRNA has been described in principle (for example Wen-Sen Lee et al. (1994), J. Biol. Chem. 269, 12032-12039; Guofeng You et al. (1995), J. Biol. Chem. 270, 29365-29371).
as §2, §3

Structures are written as SMILES.

With `Cc1cccc(C)c1Nc1c(-c2ccccc2-c2nccs2)nc2ccc(F)cn12` [Compound A1, (2,6-dimethylphenyl)-[6-fluoro-2-(2-thiazol-2-ylphenyl)-imidazo[1,2-a]pyridin-3-yl]amine], the IC50 in experiment [1] and in experiment [2] was above 10 µM each time.

In the case of `Cc1cccc(C)c1Nc1c(-c2ccccc2-c2cccc(C(=O)O)c2)nc2ccccn12` [Compound A2, 2′-[3-(2,6-Dimethylphenylamino)imidazo [1,2-a]pyridin-2-yl]biphenyl-3-carboxylic acid], the IC50 in experiment [1] and in experiment [2] was above 10 µM each time.

Turning to `Cc1cccc(C)c1Nc1c(-c2ccccc2-c2cccs2)nc2ccc(F)cn12` [Compound A3], the IC50 in experiment [1] is above 10 µM; in experiment [2] it was 1 to 10 µM.

For the compound `Cc1cccc(C)c1Nc1c(-c2ccccc2-c2cccc(C(N)=O)c2)nc2ccccn12` [Compound A4], the IC50 in experiment [1] and in experiment [2] was 1 to 10 µM in each case.

For the compound `Cc1cccc(C)c1Nc1c(-c2c(-n3cccn3)cccc2-n2cccn2)nc2ccc(F)cn12` [Compound A5, (2,6-Dimethylphenyl)-[2-(2,6-dipyrazol-1-yl-phenyl)-6-fluoroimidazo[1,2-a]pyridin-3-yl]-amine], the half-inhibitory concentration (IC50) in experiment [1] and in experiment [2] was 1 to 10 µM throughout.

For `Cc1cccc(C)c1Nc1c(-c2ccccc2-n2cccn2)nc2ccc(F)cn12` [Compound A6], the IC50 is above 10 µM in experiment [1] and 1 to 10 µM in experiment [2].

`Cc1cccc(C)c1Nc1c(-c2ccccc2-c2ccc(C(N)=O)o2)nc2ccc(F)cn12` [Compound A7]: the IC50 in experiment [1] and in experiment [2] was 1 to 10 µM in each case.

For `Cc1cccc(C)c1Nc1c(-c2ccccc2-c2ccc([N+](=O)[O-])s2)nc2ccc(F)cn12` [Compound A8], the IC50 in experiment [1] and in experiment [2] was 1 to 10 µM each time.

Take `Cc1cccc(C)c1Nc1c(-c2ccccc2-c2cncnc2)nc2ccccn12` [Compound A9]: the IC50 in experiment [1] lay in the range of 1 to 10 µM; in experiment [2] it was 0.01 to 1 µM.

As to `Cc1nc(-c2ccccc2-c2nc3ccc(F)cn3c2Nc2c(C)cccc2C)no1` [Compound A10], the IC50 in experiment [1] lay in the range of 1 to 10 µM; in experiment [2], 0.01 to 1 µM.

For the compound `Cc1cccc(C)c1Nc1c(-c2ccccc2-c2cccnc2)nc2ccc(F)cn12` [Compound A11], the IC50 lay within 1 to 10 µM in experiment [1] and 0.01 to 1 µM in experiment [2].

On to `Cc1cccc(C)c1Nc1c(-c2ccccc2-c2nnc(N)o2)nc2ccc(F)cn12` [Compound B1, {2-[2-(5-amino-1,3,4-oxadiazol-2-yl)phenyl]-6-fluoroimidazo[1,2-a]pyridin-3-yl}-(2,6-dimethylphenyl)amine], for which the IC50 in experiment [1] was above 10 µM; in experiment [2] it was 0.01 to 1 µM.

Take `Cc1cccc(C)c1Nc1c(-c2c(Cl)cccc2-c2nnc(N)o2)nc2ccc(F)cn12` [Compound B2]: the IC50 was above 10 µM in experiment [1] and 0.01 to 1 µM in experiment [2].

Take `CNc1nnc(-c2ccccc2-c2nc3ccc(F)cn3c2Nc2c(C)cccc2C)o1` [Compound C1, (2,6-dimethylphenyl)-{6-fluoro-2-[2-(5-methylamino-1,3,4-oxadiazol-2-yl)phenyl]imidazo[1,2-a]pyridin-3-yl}amine]: the IC50 was 1 to 10 µM in experiment [1] and 0.01 to 1 µM in experiment [2].

As to `CNc1nnc(-c2cc(O)c(O)cc2-c2nc3ccc(F)cn3c2Nc2c(C)cc(F)cc2C)o1` [Compound C2], the IC50 in experiment [1] was above 10 µM; in experiment [2] it was 1 to 10 µM.

`CNc1nnc(-c2cc(OC)c(OC)cc2-c2nc3ccc(F)cn3c2Nc2c(C)cc(F)cc2C)o1` [Compound C3]: the IC50 in experiment [1] is above 10 µM; in experiment [2], 1 to 10 µM.

Take `Cc1cccc(C)c1Nc1c(-c2ccccc2-c2nnc(N(C)C)o2)nc2ccc(F)cn12` [Compound C4]: the IC50 in experiment [1] was 1 to 10 µM; in experiment [2], 0.01 to 1 µM.

As to `CCNc1nnc(-c2ccccc2-c2nc3ccc(F)cn3c2Nc2c(C)cccc2C)o1` [Compound C5], the IC50 in experiment [1] is 1 to 10 µM; in experiment [2] it was 0.01 to 1 µM.

On to `CNc1nnc(-c2c(-c3nc4ccc(F)cn4c3Nc3c(C)cccc3C)c3ccccc3n2C)o1` [Compound C12, (2,6-Dimethylphenyl)-{6-fluoro-2-[1-methyl-2-(5-methylamino-1,3,4-oxadiazol-2-yl)-1H-indol-3-yl]imidazo[1,2-a]pyridin-3-yl}amine], for which the IC50 was in the range of 1 to 10 µM in experiment [1] and 0.01 to 1 µM in experiment [2].

`CNc1nnc(-c2sc3ccccc3c2-c2nc3ccc(F)cn3c2Nc2c(C)cccc2C)o1` [Compound C13, (2,6-Dimethylpheny1)-{6-fluoro-2-[2-(5-methylamino-1,3,4-oxadiazol-2-y1)-benzo[b]thiophen-3-yl]imidazo[1,2-a]pyridin-3-yl}amine]: the IC50 in experiment [1] and in experiment [2] was 0.01 to 1 µM throughout.
